According to US20170173060A1, “ACTIVATION OF THE ENDOGENOUS ILEAL BRAKE HORMONE PATHWAY FOR ORGAN REGENERATION AND RELATED COMPOSITIONS, METHODS OF TREATMENT, DIAGNOSTICS, AND REGULATORY SYSTEMS” (VOLANT HOLDINGS GMBH, priority 2014, published 2017):
“Also recorded” adds a separate entry of the source.

How the values were obtained:
MIN-6 cells = conditions: cited from earlier work
[1] = 1500 mg taken in three doses of 500 mg; cited from earlier work
[2] = test system: hypercholesterolemic New Zealand White rabbits; conditions: cited from earlier work
C57BL/6J mice = conditions: 1 mg/kg body weight, cited from earlier work
patients with RA = conditions: human, in vivo; cited from earlier work
[3] = test system: high-risk cardiovascular disease (CVD) patients; conditions: cited from earlier work
people with stable COPD = conditions: in vivo; cited from earlier work
[4] = test system: patients with initial abnormal values; test: Rate of change of weight, HBA1c, HDL, TG and AST in RYGB, Brake, combination and control patients (FIGS. 18-22); type: in vivo, human
[5] = test system: patients with metabolic syndrome; test: FS index of metabolic syndrome tracked over time in patient groups (neural net model); type: in vivo, human
Source text: The FS index (Fayad/Schentag) of MS (the relevant equation for which appears in attached FIG. 15) considers the following: Fasting Blood Glucose, Fasting Insulin, HBA1c, BMI, AST, Triglycerides, Glucose Supply-Demand (SD) index, and Proinsulin. Each parameter is mathematically arranged to increase as MS worsens, and weighted approximately equally in the prediction of MS progression and risk for organ damage.
The FS index was then applied to well-studied patient populations already in databases, using a neural net model and the equation set forth in FIG. 15 (and as above). The database included previously published 50 patients with T2D having CV events principally myocardial infarctions, and controls of a precisely matched group of T2D patients without these events (2, 3). […] For each study patient, we had complete access to all raw data, measured vital signs, culture results, and clinician assessments. […]
FS index values were calculated from serial laboratory and clinical data over timeframes ranging between 2 and 10 years. […]
The FS index was applied to well-studied patient populations already in our databases, using a neural net model. […] FS index values were calculated from serial laboratory and clinical data over timeframes ranging 2-10 years. […]

[6] = Case of patient (T2D, chronic hepatitis B, steatosis) on Januvia and Brake; type: in vivo, human; conditions: 6 months after stopping Brake, sitagliptin continued
Description: Both their Triglycerides and hepatic enzymes were 2-3× elevated. […] Their diabetic control deteriorated on this regimen, to the point where they were considered a candidate for insulin. As an alternative, patient was started on Januvia (sitagliptin) 100 mg per day and 7 pills of Brake™. After 6 months treatment, their HBA1c became normal at 6.0, indicating pancreatic regeneration from the combination product. […] They lost 35 lbs. After 6 months, they stopped the Brake™ therapy but continued sitagliptin. By 6 months later they began to gain weight and their HBA1c rose above 6.0, whereupon they resumed taking Brake™ tablets with return of their HBA1c to normal once again. This case taught the inventors that Brake™ associated organ regeneration is a long lived effect of the combination but not a permanent effect. In fact it is often notable that RYGB patients lose the effects of the surgical procedure after two or more years, and it appears that resumption of dietary indiscretion leads to recrudescence of the metabolic syndrome. Patients are thus advised to be vigilant, particularly if weight gain resumes.

[7] = test system: human abdominal subcutaneous (AbdSc) adipocytes; conditions: cited from earlier work

COc1cc(/C=C(\C#N)C(N)=O)cc(CSc2nc3ccccc3s2)c1O [AG825]
effect on BTC proliferative effect (MIN-6 cells): blocked

COc1cc2ncnc(Nc3cccc(Cl)c3)c2cc1OC [AG1478]
effect on BTC proliferative effect (MIN-6 cells): blocked

COc1ccc2cc3[n+](cc2c1OC)CCc1cc2c(cc1-3)OCO2 [Berberine]
anti-diabetic effects (biomarkers of type 2 diabetes) [1]: appear to be equal to those of 1500 mg Metformin or 4 mg Glibenclamide

CCCCCCCCCCC(C)(C)C(=O)Nc1c(OC)cc(OC)cc1OC [CI-976, 2,2-dimethyl-N-(2,4,6-trimethoxyphenyl) dodecanamide]
decrease of cholesteryl ester enrichment in thoracic aorta ([2]; rabbit, in vivo): 46% | effect on plasma triglycerides ([2]; rabbit, in vivo): no effect | reduction of foam cell area in iliac-femoral lesion ([2]; relative to the initiation of intervention, dose that did not lower plasma cholesterol): 27-29%

CC(C)=CCC[C@](C)(O)[C@H]1CC[C@]2(C)[C@@H]1[C@H](O)C[C@@H]1[C@@]3(C)CC[C@H](O[C@@H]4O[C@H](CO)[C@@H](O)[C@H](O)[C@H]4O)C(C)(C)[C@@H]3CC[C@]12C [GS-Rh2, ginsenoside Rh2]
glycemia and glucose tolerance (C57BL/6J mice; within 14 days post-PPx): improved glycemia and glucose tolerance | beta-cell proliferation (C57BL/6J mice): increased beta-cell proliferation percentages

CN(Cc1cnc2nc(N)nc(N)c2n1)c1ccc(C(=O)N[C@@H](CCC(=O)O)C(=O)O)cc1 [MTX, Methotrexate]
risk of CVD events (patients with RA): associated with a reduced risk of CVD events

COc1cc(OC)c2c(=O)[nH]c(-c3cc(C)c(OCCO)c(C)c3)nc2c1 [RVX-208]
change of ratio of necrotic core to dense calcium (NC/DC) ([3]; VH-IVUS, treated patients n=61): −7.5% | incidence of MACE lower vs. placebo ([3]; patients with hsCRP >2.0 mg/dL): 63%

O=C(Nc1c(Cl)cncc1Cl)c1ccc(OC(F)F)c(OCC2CC2)c1 [Roflumilast]
body weight during the trial period (people with stable COPD): weight loss

CC(C)c1c(C(=O)Nc2ccccc2)c(-c2ccccc2)c(-c2ccc(F)cc2)n1CC[C@@H](O)C[C@@H](O)CC(=O)O [atorvastatin]
HDL change ([4]; FIG. 20, control patients mostly atorvastatin 10 mg): essentially no change in HDL | triglyceride (TG) changes ([4]; FIG. 21): either stayed the same or had a minor drop in TG | AST concentrations and rate of change ([4]; FIG. 22): little effect on hepatic inflammation

CN(C)C(=N)N=C(N)N [metformin]
parameters that would indicate regeneration ([5]; control patients, even at dosages of 2.0 grams daily): no significant change | pattern of FS index over time ([5]; metformin alone, 61 patients (FIG. 5)): rises; also recorded: flat or slowly rising | weight change ([4]; FIG. 18): either stayed the same or lost a few pounds | HBA1c change ([4]; FIG. 19): either stayed the same or had a minor drop in HBA1c | effect on metabolic syndrome biomarkers when given alone ([4]; FIGS. 18-21 control patients): little effect

N[C@@H](CC(=O)N1CCn2c(nnc2C(F)(F)F)C1)Cc1cc(F)c(F)cc1F [sitagliptin]
HBA1c [6]: above 6.0

lipopolysaccharide [LPS]
TLR-2 protein expression increase [7]: twofold | TNF-alpha secretion ([7]; control 1.0+/-0.83): 32.8 ± 6.23 pg/mL | IL-6 secretion ([7]; control 2.7+/-0.5): 4.8 ± 0.3 ng/mL
